Assay results taken from ChEMBL document CHEMBL1133456, “Synthesis and anticonvulsant activity of novel and potent 6,7-methylenedioxyphthalazin-1(2H)-ones” (J Med Chem, 2000).

Tests used:
[1] = Relative lipophilicity expressed as Rm value; assay type: physicochemical; details: octanol/water
[2] = Ratio between TD50 and ED50 from the clonic phase of audiogenic seizures in mice; assay type: ADME, organism-based; details: mouse, in vivo; read-out: Protective index
[3] = Toxic dose in DBA/2 mice; Values ranges from: 72.4-135; assay type: toxicity; details: DBA/2, mouse, in vivo
[4] = Anticonvulsant activity against audiogenic seizures in DBA/2 mice expressed as ED50 values in clonic phase; assay type: functional; details: Mus musculus
[5] = Anticonvulsant activity against audiogenic seizures in DBA/2 mice in clonic phase at a time interval of 45 min; assay type: functional; details: Mus musculus, 0.75 h
[6] = Anticonvulsant activity against audiogenic seizures in DBA/2 mice in clonic phase at a time interval of 30 min; assay type: functional; details: Mus musculus, 0.5 h
[7] = Anticonvulsant activity against maximal electroshock (MES) induced seizures in Swiss mice.; assay type: functional; details: Mus musculus
[8] = Anticonvulsant activity against KA induced seizures in DBA/2 mice; assay type: functional; details: Mus musculus
[9] = Anticonvulsant activity against Pentylenetetrazole (PTZ) induced seizures in Swiss mice.; assay type: functional; details: Mus musculus
[10] = Anticonvulsant activity against audiogenic seizures in DBA/2 mice in clonic phase at a time interval of 60 min; assay type: functional; details: Mus musculus, 1 h
[11] = Anticonvulsant activity against audiogenic seizures in DBA/2 mice in clonic phase at a time interval of 90 min; assay type: functional; details: Mus musculus, 1.5 h
[12] = Anticonvulsant activity against ATPA induced seizures in DBA/2 mice expressed as ED50 values in tonic phase; assay type: functional; details: Mus musculus
[13] = Anticonvulsant activity against audiogenic seizures in DBA/2 mice in clonic phase at a time interval of 15 min; assay type: functional; details: Mus musculus, 0.25 h
[14] = Anticonvulsant activity against audiogenic seizures in DBA/2 mice after pretreatment with Aniracetam expressed as ED50 values in clonic phase; assay type: functional, Mus musculus
[15] = Anticonvulsant activity against audiogenic seizures in DBA/2 mice in clonic phase at a time interval of 120 min; assay type: functional; details: Mus musculus, 2 h
[16] = Anticonvulsant activity against audiogenic seizures in DBA/2 mice expressed as ED50 values in tonic phase; assay type: functional; details: Mus musculus
[17] = Anticonvulsant activity against AMPA induced seizures in DBA/2 mice expressed as ED50 values in tonic phase; assay type: functional; details: Mus musculus
[18] = Anticonvulsant activity against ATPA induced seizures in DBA/2 mice expressed as ED50 values in clonic phase; assay type: functional; details: Mus musculus
[19] = Anticonvulsant activity against AMPA induced seizures in DBA/2 mice expressed as ED50 values in clonic phase; assay type: functional; details: Mus musculus
[20] = Toxic dose in DBA/2 mice; assay type: toxicity; details: DBA/2, mouse, in vivo
[21] = Ratio between TD50 and ED50 from the clonic phase of audiogenic seizures; assay type: ADME; details: read-out: Protective index
[22] = Toxic dose in DBA/2 mice; Values ranges from: 52.0-194; assay type: toxicity; details: DBA/2, mouse, in vivo
[23] = Toxic dose in DBA/2 mice; Values ranges from: 74.8-169; assay type: toxicity; details: DBA/2, mouse, in vivo
[24] = Anticonvulsant activity against audiogenic seizures in DBA/2 mice expressed as ED50 values in tonic phase; Values ranges from: 19.4-50.6; assay type: functional; details: Mus musculus
[25] = Anticonvulsant activity against audiogenic seizures in DBA/2 mice expressed as ED50 values in clonic phase; Values ranges from: 24.4-55.1; assay type: functional; details: Mus musculus
[26] = Toxic dose in DBA/2 mice; Values ranges from: 36.1-82.9; assay type: toxicity; details: DBA/2, mouse, in vivo
[27] = Anticonvulsant activity against audiogenic seizures in DBA/2 mice expressed as ED50 values in clonic phase; Values ranges from: 6.52-35.4; assay type: functional; details: Mus musculus
[28] = Anticonvulsant activity against audiogenic seizures in DBA/2 mice expressed as ED50 values in tonic phases; Values ranges from: 4.02-19.9; assay type: functional; details: Mus musculus
[29] = Anticonvulsant activity against audiogenic seizures in DBA/2 mice expressed as ED50 values in clonic phase; Values ranges from: 22.0-35.1; assay type: functional; details: Mus musculus
[30] = Anticonvulsant activity against audiogenic seizures in DBA/2 mice expressed as ED50 values in tonic phase; Values ranges from: 16.1-31.5; assay type: functional; details: Mus musculus
[31] = Toxic dose in DBA/2 mice; Values ranges from: 59.6-132; assay type: toxicity; details: DBA/2, mouse, in vivo
[32] = Toxic dose in DBA/2 mice; Values ranges from: 59.5-88.2; assay type: toxicity; details: DBA/2, mouse, in vivo
[33] = Anticonvulsant activity against audiogenic seizures in DBA/2 mice expressed as ED50 values in tonic phase; Values ranges from: 8.98-27.3; assay type: functional; details: Mus musculus
[34] = Anticonvulsant activity against audiogenic seizures in DBA/2 mice expressed as ED50 values in clonic phase; […]; assay type: functional; details: Mus musculus
[35] = Toxic does was determined in DBA/2 mice; Values ranges from: 47.5-122; assay type: toxicity; details: DBA/2, mouse
[36] = Anticonvulsant activity against audiogenic seizures in DBA/2 mice in clonic phase at a time interval of 45 min after intraperitoneal administration; Values ranges from: 27.2-52.1; assay type: functional; details: Mus musculus, ip, 0.75 h
[37] = Anticonvulsant activity against ATPA induced seizures in DBA/2 mice. activity is expressed as ED50 values in clonus phase; Values ranges from: 45.4-89.7; assay type: functional; details: Mus musculus
[38] = Anticonvulsant activity against ATPA induced seizures in DBA/2 mice. activity is expressed as ED50 values in tonus phase; Values ranges from: 32.4-57.3; assay type: functional; details: Mus musculus
[39] = Toxic dose in DBA/2 mice; Values ranges from: 82.6-306; assay type: toxicity; details: DBA/2, mouse, in vivo
[40] = Anticonvulsant activity against AMPA induced seizures in DBA/2 mice expressed as ED50 values in tonic phase; Values ranges from: 32.6-62.7; assay type: functional; details: Mus musculus
[41] = Toxic dose in DBA/2 mice; Values ranges from: 44.3-81.6; assay type: toxicity; details: DBA/2, mouse, in vivo
[42] = Anticonvulsant activity against audiogenic seizures in DBA/2 mice expressed as ED50 values in tonic phase; Values ranges from: 2.47-23.1; assay type: functional; details: Mus musculus
[43] = Anticonvulsant activity against audiogenic seizures in DBA/2 mice in clonic phase at a time interval of 45 min after intraperitoneal administration; Values ranges from: 13.8-41.2; assay type: functional; details: Mus musculus, ip, 0.75 h
[44] = Anticonvulsant activity against audiogenic seizures in DBA/2 mice in clonic phase at a time interval of 120 min after intraperitoneal administration; assay type: functional; details: Mus musculus, ip, 2 h
[45] = Anticonvulsant activity against audiogenic seizures in DBA/2 mice in clonic phase at a time interval of 90 min after intraperitoneal administration; Values ranges from: 30.5-62.3; assay type: functional; details: Mus musculus, ip, 1.5 h
[46] = Anticonvulsant activity against ATPA induced seizures in DBA/2 mice expressed as ED50 values in tonic phase; Values ranges from: 22.7-44.8; assay type: functional; details: Mus musculus
[47] = Anticonvulsant activity against KA induced seizures in swiss mice; Values ranges from: 30.3-50.1; assay type: functional; details: Mus musculus
[48] = Anticonvulsant activity against audiogenic seizures in DBA/2 mice after pretreatment with Aniracetam expressed as ED50 values in tonic phase; Values ranges from: 21.9-46.8; assay type: functional; details: Mus musculus
[49] = Anticonvulsant activity against audiogenic seizures in DBA/2 mice in clonic phase at a time interval of 15 min after intraperitoneal administration; Values ranges from: 25.1-42.6; assay type: functional; details: Mus musculus, ip, 0.25 h
[50] = Anticonvulsant activity against audiogenic seizures in DBA/2 mice expressed as ED50 values in clonic phase; Values ranges from: 9.04-49.8; assay type: functional; details: Mus musculus
[51] = Anticonvulsant activity against audiogenic seizures in DBA/2 mice in clonic phase at a time interval of 30 min after intraperitoneal administration; Values ranges from: 9.04-49.8; assay type: functional; details: Mus musculus, ip, 0.5 h
[52] = Anticonvulsant activity against audiogenic seizures in DBA/2 mice after pretreatment with Aniracetam expressed as ED50 values in clonic phase; Values ranges from: 40.9-79.2; assay type: functional; details: Mus musculus
[53] = Anticonvulsant activity against audiogenic seizures in DBA/2 mice in clonic phase at a time interval of 60 min after intraperitoneal administration; Values ranges from: 18.8-47.0; assay type: functional; details: Mus musculus, ip, 1 h
[54] = Anticonvulsant activity against AMPA induced seizures in DBA/2 mice expressed as ED50 values in clonic phase; Values ranges from: 27.1-47.3; assay type: functional; details: Mus musculus
[55] = Anticonvulsant activity against maximal electroshock (MES) induced seizures in Swiss mice; Values ranges from: 29.9-57.3; assay type: functional; details: Mus musculus
[56] = Anticonvulsant activity against Pentylenetetrazole (PTZ) induced seizures in Swiss mice; Values ranges from: 30.9-78.8; assay type: functional; details: Mus musculus
[57] = Anticonvulsant activity against ATPA induced seizures in DBA/2 mice expressed as ED50 values in clonic phase; Values ranges from: 25.8-57.7; assay type: functional; details: Mus musculus

SMILES	Rm [1]	selectivity ratio [2]	ED50 [4]	ED50 [16]	TD50 [20]	selectivity ratio [21]	other results
Nc1ccc(C2=NNC(=O)Cc3cc4c(cc32)OCO4)cc1	-0.43	4.5					TD50 [3]: 99.1 µmol/kg
CCCCNC(=O)n1nc(-c2ccc(N)cc2)c2cc3c(cc2c1=O)OCO3	0.002		3.25 µmol/kg	2.23 µmol/kg	20.4 µmol/kg	6.3	ED50 [5]: 8.63 µmol/kg; ED50 [6]: 3.25 µmol/kg; ED50 [7]: 33.1 µmol/kg; ED50 [8]: 36.2 µmol/kg; ED50 [9]: 41.9 µmol/kg; ED50 [10]: 11.2 µmol/kg; ED50 [11]: 26.6 µmol/kg; ED50 [12]: 30.1 µmol/kg; ED50 [13]: 13.9 µmol/kg; ED50 [14]: 12.3 µM/kg; ED50 ([14]; Mus musculus, read-out: ED50): 17.6 µmol/kg; ED50 [15]: 44.1 µmol/kg; ED50 [17]: 47.4 µmol/kg; ED50 [18]: 36.2 µmol/kg; ED50 [19]: 37 µmol/kg
CCNC(=O)n1nc(-c2ccc(N)cc2)c2cc3c(cc2c1=O)OCO3	-0.235		42.6 µmol/kg	35.1 µmol/kg	91.1 µmol/kg	2.1	
CCCCCNC(=O)n1nc(-c2ccc(N)cc2)c2cc3c(cc2c1=O)OCO3	0.101		13.2 µmol/kg	5.34 µmol/kg	56.6 µmol/kg	4.3	
CCCNC(=O)n1nc(-c2ccc(N)cc2)c2cc3c(cc2c1=O)OCO3	-0.126		15.8 µmol/kg	6.82 µmol/kg	52.8 µmol/kg	3.3	
Nc1ccc(-c2nn(C(=O)NC3CCCCC3)c(=O)c3cc4c(cc23)OCO4)cc1	0.108		28.4 µmol/kg	26.2 µmol/kg	63.8 µmol/kg	2.2	
O=[N+]([O-])c1ccc(-c2nnc(O)c3cc4c(cc23)OCO4)cc1			> 100 µmol/kg	> 100 µmol/kg			
CC1=NN=C(c2ccc(N)cc2)c2cc3c(cc2C1)OCO3 [GYKI-52466]	-0.304	2.1					TD50 [35]: 76.1 µmol/kg; ED50 [36]: 37.3 µmol/kg; ED50 [37]: 63.8 µmol/kg; ED50 [38]: 43.1 µmol/kg
O=C1Cc2cc3c(cc2C(c2ccccc2)=NN1)OCO3	-0.142	3.7					TD50 [39]: 159 µmol/kg

Second part, led by results:

Rm [1]	SMILES	selectivity ratio [2]	ED50 [4]	ED50 [16]	TD50 [20]	selectivity ratio [21]	other results
0.01	CCCCNC(=O)n1nc(-c2cccc(N)c2)c2cc3c(cc2c1=O)OCO3		31.6 µmol/kg	22.4 µmol/kg	101 µmol/kg	3.2	
-0.364	CNC(=O)n1nc(-c2ccc(N)cc2)c2cc3c(cc2c1=O)OCO3		23.4 µmol/kg	16.8 µmol/kg	59.4 µmol/kg	2.5	
-0.372	Nc1cccc(C2=NNC(=O)Cc3cc4c(cc32)OCO4)c1	5.6					TD50 [22]: 101 µmol/kg
-0.158	Oc1nnc(-c2ccccc2)c2cc3c(cc12)OCO3	3.1					TD50 [23]: 112 µmol/kg; ED50 [24]: 31.3 µmol/kg; ED50 [25]: 36.7 µmol/kg
-0.205	Nc1ccc(-c2nnc(S)c3cc4c(cc23)OCO4)cc1	3.6					TD50 [26]: 54.7 µmol/kg; ED50 [27]: 15.2 µmol/kg; ED50 [28]: 8.94 µmol/kg
0.05	Sc1nnc(-c2ccccc2)c2cc3c(cc12)OCO3	3.2					ED50 [29]: 27.8 µmol/kg; ED50 [30]: 22.5 µmol/kg; TD50 [31]: 89 µmol/kg
-0.399	Nc1cccc(-c2nnc(O)c3cc4c(cc23)OCO4)c1	3.1					TD50 [32]: 72.4 µmol/kg; ED50 [33]: 15.7 µmol/kg; ED50 [34]: 23.3 µmol/kg
-0.454	Nc1ccc(-c2nnc(O)c3cc4c(cc23)OCO4)cc1	2.8					ED50 [40]: 45.2 µmol/kg; TD50 [41]: 60.1 µmol/kg; ED50 [42]: 7.56 µmol/kg; ED50 [43]: 23.8 µmol/kg; ED50 [44]: > 50 µmol/kg; ED50 [45]: 43.6 µmol/kg; ED50 [46]: 31.9 µmol/kg; ED50 [47]: 38.9 µmol/kg; ED50 [48]: 32 µmol/kg; ED50 [49]: 32.7 µmol/kg; ED50 [50]: 21.2 µmol/kg; ED50 [51]: 21.2 µmol/kg; ED50 [52]: 56.9 µmol/kg; ED50 [53]: 29.7 µmol/kg; ED50 [54]: 35.8 µmol/kg; ED50 [55]: 41.4 µmol/kg; ED50 [56]: 49.4 µmol/kg; ED50 [57]: 38.6 µmol/kg
